The target of one assay is recombinant PDK-1 (Homo sapiens (Human), UniProt O15530). Description: PDK-1 kinase activity (PDK-1 kinase assay kit, cell-free). The class given is biochemical. As to the method:
PDK-1 kinase activity This in vitro assay was performed using a PDK-1 kinase assay kit (Upstate, Lake Placid, N.Y.) according to the vendor's instructions. This cell-free assay is based on the ability of recombinant PDK-1, in the presence of DMSO vehicle or the test agent, to activate its downstream kinase serum- and glucocorticoid-regulated kinase (SGK.) which, in turn, phosphorylates the Akt/SGK-specific peptide substrate RPRAATF with [γ-^32]-ATP. […] The reported values represent the means of two independent determinations.

The subject of another assay is phospho-Akt. Description: Western blot analysis of Akt and phospho-Akt in PC-3 cells. The class given is cell-based, human. To be noted: even at 1 μM. The method, then: Immunoblotting. The general procedure for the Western blot analysis of Akt and phospho-Akt is described as follows. Cells were washed in PBS, resuspended in SDS sample buffer sonicated by an ultrasonic sonicator for 5 see, and boiled for 5 min. After brief centrifugation, equivalent protein concentrations from the soluble fractions were resolved in 10% SDS-polyacrylamide gels on a Minigel apparatus, and transferred to a nitrocellulose membrane using a semi-dry transfer cell. The transblotted membrane was washed three times with TBS containing 0.05% Tween 20 (TBST). After blocking with TBST containing 5% nonfat milk for 60 min., the membrane was incubated with the primary antibody at 1:1,000 dilution in TBST-5% low fat milk at 4° C. for 12 h, and was then washed three times with TBST. The membrane was probed with goat anti-rabbit IgG-HRP conjugates (1:1,000) for 1 h at room temperature, and was washed with TBST three times. The immunoblots were visualized by enhanced chemiluminescence.
(In western blotting, separated proteins are transferred to a membrane and probed.)

Sequence of recombinant PDK-1 (O15530 whole entry, looked up): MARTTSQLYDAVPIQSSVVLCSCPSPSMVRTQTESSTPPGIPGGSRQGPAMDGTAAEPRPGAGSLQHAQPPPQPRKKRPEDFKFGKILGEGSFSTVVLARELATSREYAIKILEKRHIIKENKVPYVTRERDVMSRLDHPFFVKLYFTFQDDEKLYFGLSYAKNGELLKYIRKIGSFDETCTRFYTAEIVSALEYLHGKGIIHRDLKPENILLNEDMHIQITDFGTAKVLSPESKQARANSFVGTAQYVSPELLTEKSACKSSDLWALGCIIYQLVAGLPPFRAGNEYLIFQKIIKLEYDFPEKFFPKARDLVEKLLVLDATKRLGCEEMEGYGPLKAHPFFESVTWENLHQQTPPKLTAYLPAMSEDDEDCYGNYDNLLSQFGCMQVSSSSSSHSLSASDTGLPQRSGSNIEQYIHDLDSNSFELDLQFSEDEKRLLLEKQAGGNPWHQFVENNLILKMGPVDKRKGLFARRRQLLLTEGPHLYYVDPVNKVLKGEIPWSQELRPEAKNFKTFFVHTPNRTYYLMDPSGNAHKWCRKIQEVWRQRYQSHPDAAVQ

“4-[5-(2-Phenanthrenyl)-3-(trifluoromethyl)-1H-pyrazol-1-yl]-phenyl -guanidine [Compound 71]”: the “increase in PDK-1 inhibition potency over compound 59” value at recombinant PDK-1 was “five-fold”. For the same substance, the phospho-Akt level entry in the assay with phospho-Akt is “substantial decrease”.

Values taken from US8741944B2, “Anti-infective agents against intracellular pathogens” (priority 2007, dated 2014).
